The text below walks through data of patent US20080275136A1, “Use of Glycerol for Improving Cardiac Function” (priority 2005, published 2008).

Data set [1] has as its system heart. The following applies: cited from earlier work.
In data set [2] the test system is type 2 diabetic patients. The following applies: cited from earlier work.
The subject of data set [3] is isolated neonatal rat cardiomyocytes. The settings on record: cited from earlier work.
Data set [4] has as its system perfused rat heart. In words: 14CO2 production from [14C]-glycerol in perfused rat heart (mitochondrial energy production). The following applies: energy demand raised from 350 to 450 beats/min; whatever the circulating glycerol concentration (0.33 or 3.33 mM). As to the method:
(§1) The investigations were carried out on a perfused rat heart model (LOPASCHUK and BARR., 1997, aforementioned, SENTEX et al, 2001, aforementioned, FOLCH et al., J Biol Chem, 226, 497-509, 1957). Male Wistar rats (280-330 g) were anaesthetised with sodium pentobarbital (60 mg per kg, i.p.) and heparin was intravenously injected (500 IU/kg). After 1 min, the hearts were excised and placed in a cold (4° C.) perfusion buffer awaiting contractions ceased. The heart was then immediately cannulated through the aorta and perfused according to the Langendorff method at a constant perfusion pressure of 80 cm of water (8 kPa). […]
(§2) Before use, all solutions were filtered through a 0.8 μm filter (Millipore, Saint Quentin en Yvelines, France) to remove any particulate contaminants. […] The intra-ventricular pressure and the heart rate were recorded together with ECG. Coronary flow was measured by sequentially collecting the effluent. […]
The cardiac capacity to use glycerol as a metabolic substrate in energy production, according to glycerol availability was evaluated using ^14C-radiolabelled glycerol.
The direct measurement of mitochondrial energy production was made by quantitatively collecting ^14CO2 produced from the perfused hearts. […] The hyamine […] was collected every 10 minutes and the radioactivity evaluated.

Data set [5] concerns perfused rat heart. As to the kind of experiment: Incorporation of glycerol in glycerolipids (PL and NPL) in perfused rat heart. The following applies: increase in rate. As to the method: The experiments were performed using the perfusion conditions described in Example 1. At the end of the perfusion, the heart was washed out from the remaining radiolabelled medium by 10 mL of Krebs-Henseleit solution injected through the canula. The hearts were homogenized in 30 mL chloroform/methanol (2/1, v/v) according to FOLCH (1957, aforementioned). The radioactivity of the homogenate was evaluated. A 0.73% NaCl solution was added to the homogenate to cause phase separation. The radioactivity was determined in samples of the aqueous and organic fractions, and the phospholipids (PL) were separated from non-phosphorous lipids (NPL) on silica cartridges (Supelco, Sigma) and the radioactivity of each class was evaluated. The fate of intracellular glycerol was evaluated in these rat hearts by analysing the radioactivity incorporated into phospholipids (PL) and non-phosphorous lipids (NPL), which in the heart represent mainly the triacylglycerol pool.

The test system of data set [6] is perfused rat heart. In words: Simultaneous oxidation of [3H]-palmitate and [14C]-glycerol in perfused rat heart. The following applies: extracellular glycerol concentration increased; palmitate 0.4 mM. As to the method:
The influence of cardiac energy demand and circulating glycerol concentration on fatty acid metabolism was evaluated in the heart by following the intracellular palmitate fate with [^3H]-palmitate. The experiments were performed using the perfusion conditions described in Example 1, except that a perfusion solution supplemented with palmitate (0.4 mM) was used. To prepare palmitate-enriched solution, 43.5 g of albumin (fraction bovine, Sigma) was dissolved in 350 mL Krebs-Henselheit buffer. Palmitate was then slowly added to this albumin solution and mixed. The albumin-palmitate mixture was dialysed against Krebs-Henselheit solution at +4° C. (three time 12 h dialysis in 10 basal solution volume). For the final preparation of the palmitate-enriched fluid, 93.5 mL of concentrated solution were incorporated in 2 L of Krebs-Henselheit Radioactive solution was prepared in the same conditions with addition of [^3H]-palmitate (1 μCi/mL). The perfusion solution also contained [^14C]-glycerol to follow glycerol oxidation in the same heart. The oxidations of palmitate and glycerol were evaluated simultaneously using as tracers [^3H]-palmitate and [^14C]-GLYCEROL, respectively. At the end of the perfusion, the oxidized substrates were determined by measuring the radioactivity rejected by the heart in the perfusion medium as [^3H]2O and [^14C]O2, respectively.

For data set [7], the system named is perfused rat heart. In words: Glycerol uptake in perfused rat heart (total radioactivity of the homogenate). As to the method: as §1, with “kPa). The perfusion fluid consisted of a modified Krebs-Henseleit bicarbonate buffer (mM concentrations: NaCl 118, NaHCO3 25, MgSO4 1.2, KH2PO4 1.2, KCl 4.7, glucose 5.5 and CaCl2 2.0).” for “kPa).”
as §2
At the end of the perfusion, the heart was washed out from the remaining radiolabelled medium by 10 mL of Krebs-Henseleit solution injected through the canula. […] The radioactivity of the homogenate was evaluated.
The glycerol uptake was evaluated from the total radioactivity of the homogenate.

The mark [8] stands for this setting: as a function of the extracellular glycerol concentration.

Like-named read-outs stand apart in the source and are kept apart here.

Consider `CCOC(=O)[C@@]1(CCCCCCOc2ccc(Cl)cc2)CO1` [Etomoxir], for which the cardiac hypertrophy result in data set [1] (chronic treatment) is listed as “induced cardiac hypertrophy”. Moreover, in data set [1] (normal and diabetic heart), the glucose oxidation result was “increase glucose oxidation”. The insulin sensitivity entry in data set [2] was “improve insulin sensitivity”.

With `COc1ccc(CN2CCNCC2)c(OC)c1OC` [Trimetazidine, reference compound], in data set [3] (Trimetazidine added), the glycerol uptake result is reported as “increased”, the phospholipid synthesis entry is “increased their synthesis only at high glycerol concentrations” and the triacylglycerol synthesis entry is “no significant effect”. Also, in data set [1] (associated with increased phospholipid synthesis), the cellular glycerol uptake entry is “significant increase”. For the same compound, the β-oxidation entry in data set [1] is reported as “reduces β-oxidation”. In addition, the phospholipid synthesis entry in data set [1] (in vitro and in vivo) was “increasing the phospholipid synthesis”.

Consider `OCC(O)CO` [glycerol], for which the “mitochondrial production of 14CO2 from glycerol” value in data set [4] is “significantly increased”. Further, in data set [3] (setting [8]), the PL concentration entry is listed as “increased progressively”. For the same compound, the triacylglycerol concentration result in data set [3] (setting [8]) is given as “only increased at higher glycerol concentrations”. Moreover, the glycerol uptake entry is given as “increases” in data set [3] (extracellular glycerol concentration from 80 μM to 660 μM); “significant increase” in data set [7] (high glycerol concentration (3.33 mM), increased energetic demand 350 to 450 beats/min); “not significantly modified” in data set [7] (low glycerol concentration (0.33 mM), increase in rate 350 to 450 beats/min). Moreover, the synthesis of glycerolipids result in data set [5] (high glycerol concentration (3.33 mM)) is “involved in the synthesis of both membrane phospholipids and storage triacylglycerols”; in data set [5] (low glycerol concentration (0.33 mM)), “does not influence”. Besides, in data set [6], the “FA β-oxidation ([3H]2O from palmitate)” value is on record as “reduced”. In data set [6], the “glycerol oxidation ([14C]O2)” value is “increased”.
